Data reported in paper PMC12876990, “Targeting secreted PLA2 interactions with EGFR and vimentin to arrest prostate tumour growth” (Cell Death & Disease, 2025).
Square brackets hold non-standard residues; d marks the D form. Peptide text beside a SMILES is read from it. 2Nal = N[C@@H](Cc1ccc2ccccc2c1)C(=O)O

Experiments:
[1] = 28-day oral toxicity study: daily clinical observations; format: in vivo, male Sprague Dawley rats; set-up: key to Clinical observations: NC A, no clinical abnormalities
Description: 3.6. Procedure for test item administration […]
intragastric cannula attached to a 3 mL syringe.
3.7. Observation of animals […]
groups: Day 29; recovery groups: Day 43).
(§1) (Appendix C Study Data Spreadsheets). […]
report (Appendix C Study Data Spreadsheets).
3.7.3. Clinical observations […]
groups and on the day of sa crifice. […]
and abnormal behaviour. Skin and fur, eyes and mucous membranes, respiratory, […]
patterns were monitored. Particular attention was paid to observation of tremor, convulsion, salivation, diarrhoea, lethargy, sleep and coma.
3.7.4. Detailed clinical examinations […]
the report (Appendix C Study Data Spreadsheets). […]

[2] = 28-day oral toxicity study: biochemistry analysis; format: in vivo, male Sprague Dawley rats
Description: Blood analyse s (haematology and biochemistry) w ere performed on all animals on Day 29 (main groups) or Day 43 (recovery groups). Approximately 4 mL of blood was taken from ea ch animal by cardiac puncture using a 10 mL syringe and 21-gauge needle. The procedure involved anaesthetising by intraperitoneal injection of sodi um pentobarbitone using a 2 mL sterile plastic syringe attached to a 26-gauge needle (Terumo).
For each blood sampling, the blood was divided into two aliquots: (i) one was placed into a tube containing EDTA (for whole blood and EDTA plasma), (ii) one aliquot into a Li-heparin tube. […]
Results and methods of analysis were attached in an appendix to the report (Appendix D Haematology and Biochemistry). Blood smear s for cell morphology were prepared. […]
3.9.2. Biochemistry analysis
The following parameters were analysed: glucose (Glu), urea, creatinine (Creat), total protein (TP), albumin (ALB), albumin/globulin ratio (A:G), total bilirubin (TBil), alkaline phosphatase (ALP), aspartate aminotransferase (AST), alanine aminotransferase (ALT), creatine kinase (CK), chole sterol (Chol), calcium (Ca), phosphate (Phos), Ca:P ratio, sodium (Na), potassium (K), Na:K ratio, chloride (Cl), globulin (Glob), gamma glutamyl transferase (GGT) and triglycerides (Trig).
Haematology and Biochemistry). […]
as §1

[3] = 28-day oral toxicity study: urinalysis; format: in vivo, male Sprague Dawley rats
Description: Haematology and Biochemistry).
Urine was collected at the end of the study (on Days 29 and 43 for main and recovery groups, respectively) by placing a urine collection tube at the opening of the urethra and any urine expressed by the animal wa s collected. If no urine came out, pressure was gently applied on the bladder area of the abdomen.
Urine was also collected by bladder puncture at the time of death to maximise the volume collected. The animal was placed in lateral recumbency and the abdominal cavity opened. A needle attached to the syringe w as in serted int o the bladder and urine withdrawn with the plunger. The urine sample was expelled from the syringe into the collection tube.
The urine samples were an alysed, individual re su lts are pres ented a s an appendix to the report (Appendix C Study Data Spreadsheets). […]

[4] = rat, in vivo, 20 mg/kg
Description: The calculated volumetric do se wa s administered to each rat orally by gav age, using a plastic
Two dose level s of 1 and 20 mg/kg of the te st it em susp ension were administered to each rat
every 3 days (total 10 do ses) for 28 days. This c orresponded to volumetric dose of 10.09 and
10.23 mL/kg. The volumetric dose administered to each animal was calculated on Days 1, 8, 15
Feed consumption was monitored weekly over the 28-day experimental period in all groups
and was continued for a further 2 weeks in the recovery groups (42-day experimental
period). Feed intake was monitored by providing a known mass of feed to each cage and
subtracting the mas s remaining at the end of th e weekly period. Animals were fa sted
overnight on either Day 28 (main groups) or Day 42 (recovery groups).

[5] = Day 43, Gr 5 recovery, 20 mg/kg

CC(C)C[C@@H]1NC(=O)[C@H](Cc2ccc3ccccc3c2)NC(=O)[C@H](CCCNC(=N)N)NC(=O)[C@H](Cc2ccc3ccccc3c2)NC(=O)[C@H](CO)NC1=O [c2, cyclo-((2-Nal)-Leu-Ser-(2-Nal)-Arg)] (cyclo([2Nal]LS[2Nal]R))
clinical signs ([1]; 1 and 20 mg/kg): did not have an adverse effect | Clinical observations ([1]; Day 1-7, Gr 2, 1 mg/kg): NC A | Clinical observations ([1]; Day 1-7, Gr 3, 20 mg/kg): NC A | Clinical observations ([1]; Day 1-7, Gr 5 recovery, 20 mg/kg): NC A | Clinical observations ([1]; Day 8-14, Gr 2, 1 mg/kg): NC A | Clinical observations ([1]; Day 8-14, Gr 3, 20 mg/kg): NC A | Clinical observations ([1]; Day 8-14, Gr 5 recovery, 20 mg/kg): NC A | Clinical observations ([1]; Day 15-21, Gr 2, 1 mg/kg): NC A | Clinical observations ([1]; Day 15-21, Gr 3, 20 mg/kg): NC A | Clinical observations ([1]; Day 15-21, Gr 5 recovery, 20 mg/kg): NC A | Clinical observations ([1]; Day 22-28, Gr 2, 1 mg/kg): NC A | Clinical observations ([1]; Day 22-28, Gr 3, 20 mg/kg): NC A | Clinical observations ([1]; Day 22-28, Gr 5 recovery, 20 mg/kg): NC A | Clinical observations ([1]; Day 29-35, Gr 5 recovery, 20 mg/kg): NC A | Clinical observations ([1]; Day 36-43, Gr 5 recovery, 20 mg/kg): NC A | ALT (serum alanine transaminase) ([2]; 1 mg/kg): 61.1 ± 15.53 IU/L | CK (serum creatine kinase) ([2]; 1 mg/kg): 164 ± 47.4 IU/L | K (serum potassium) ([2]; 1 mg/kg): 3.59 ± 0.137 mM | Na/K ratio ([2]; 1 mg/kg): 40.5 ± 1.59 | ALT (serum alanine transaminase) ([2]; 20 mg/kg): 64.7 ± 19.01 IU/L | CK (serum creatine kinase) ([2]; 20 mg/kg): 140 ± 34.4 IU/L | K (serum potassium) ([2]; 20 mg/kg): 3.66 ± 0.295 mM | Na/K ratio ([2]; 20 mg/kg): 39.9 ± 3.16 | ALP ([2]; Day 29, Gr 2, 1 mg/kg): 219 ± 37.4 IU/L | AST ([2]; Day 29, Gr 2, 1 mg/kg): 173 ± 69.4 IU/L | CK ([2]; Day 29, Gr 2, 1 mg/kg): 164 ± 47.4 IU/L | Na ([2]; Day 29, Gr 2, 1 mg/kg): 145 ± 0.7 mmol/L | ALP ([2]; Day 29, Gr 3, 20 mg/kg): 234 ± 35.7 IU/L | ALT ([2]; Day 29, Gr 3, 20 mg/kg): 64.7 ± 19.01 IU/L | AST ([2]; Day 29, Gr 3, 20 mg/kg): 163 ± 76.8 IU/L | CK ([2]; Day 29, Gr 3, 20 mg/kg): 140 ± 34.4 IU/L | Na ([2]; Day 29, Gr 3, 20 mg/kg): 145 ± 0.8 mmol/L | ALP [2, 5]: 144 ± 24.2 IU/L | ALT [2, 5]: 62 ± 20.2 IU/L | AST [2, 5]: 236 ± 106.7 IU/L | CK [2, 5]: 117 ± 36.0 IU/L | Na [2, 5]: 144 ± 0.4 mmol/L | TP [2, 5]: 62 ± 1.7 g/L | Cl ([2]; rat, in vivo, 1 mg/kg): 101 ± 1.2 mmol/L | Urine bilirubin: animals Negative ([3]; Day 29, Gr 2, 1 mg/kg): 8/8 | Urine blood: animals Negative ([3]; Day 29, Gr 2, 1 mg/kg): 8/8 | Urine glucose: animals Negative ([3]; Day 29, Gr 2, 1 mg/kg): 8/8 | Urine ketone: animals Small ([3]; Day 29, Gr 2, 1 mg/kg): 1/8 | Urine ketone: animals Trace ([3]; Day 29, Gr 2, 1 mg/kg): 5/8 | Urine leucocytes: animals Negative ([3]; Day 29, Gr 2, 1 mg/kg): 8/8 | Urine nitrite: animals Negative ([3]; Day 29, Gr 2, 1 mg/kg): 8/8 | Urine protein: animals 1+ ([3]; Day 29, Gr 2, 1 mg/kg): 4/8 | Urine protein: animals 2+ ([3]; Day 29, Gr 2, 1 mg/kg): 2/8 | Urine protein: animals Trace ([3]; Day 29, Gr 2, 1 mg/kg): 2/8 | Urobilinogen: animals Normal ([3]; Day 29, Gr 2, 1 mg/kg): 8/8 | Urine bilirubin: animals Negative ([3]; Day 29, Gr 3, 20 mg/kg): 9/9 | Urine blood: animals Negative ([3]; Day 29, Gr 3, 20 mg/kg): 9/9 | Urine glucose: animals Negative ([3]; Day 29, Gr 3, 20 mg/kg): 9/9 | Urine ketone: animals Negative ([3]; Day 29, Gr 3, 20 mg/kg): 1/9 | Urine ketone: animals Small ([3]; Day 29, Gr 3, 20 mg/kg): 4/9 | Urine ketone: animals Trace ([3]; Day 29, Gr 3, 20 mg/kg): 4/9 | Urine leucocytes: animals Negative ([3]; Day 29, Gr 3, 20 mg/kg): 9/9 | Urine nitrite: animals Negative ([3]; Day 29, Gr 3, 20 mg/kg): 9/9 | Urine protein: animals 1+ ([3]; Day 29, Gr 3, 20 mg/kg): 7/9 | Urine protein: animals 2+ ([3]; Day 29, Gr 3, 20 mg/kg): 2/9 | Urobilinogen: animals Normal ([3]; Day 29, Gr 3, 20 mg/kg): 9/9 | urine parameters ([3]; Day 29 and Day 43): no obvious effects | Urine bilirubin: animals Negative [3, 5]: 5/5 | Urine blood: animals Negative [3, 5]: 3/5 | Urine blood: animals Small [3, 5]: 1/5 | Urine blood: animals Trace [3, 5]: 1/5 | Urine glucose: animals Negative [3, 5]: 5/5 | Urine ketone: animals Negative [3, 5]: 2/5 | Urine ketone: animals Trace [3, 5]: 3/5 | Urine leucocytes: animals Negative [3, 5]: 5/5 | Urine nitrite: animals Negative [3, 5]: 5/5 | Urine protein: animals 1+ [3, 5]: 2/5 | Urine protein: animals 2+ [3, 5]: 1/5 | Urine protein: animals Negative [3, 5]: 2/5 | Urobilinogen: animals Normal [3, 5]: 5/5 | Mean feed intake/cage [4]: 5180 g
